Data as given in patent US5037822A, “1-arylsulphonyl-2-pyrrolidinethione or 1-arylsulphonyl-2-piperidinethione derivatives, process for the preparation thereof their application as medicinal products and compositions containing them” (Roussel-Uclaf, priority 1989, dated 1991).
Where two headings read alike, the source gives them in different places.

Assays:
[1] = test system: isolated guinea pig ileum; assay: Agonist action on isolated guinea pig ileum; format: cell-based; settings: Cavia porcellus, read-out: Agonist action pD2 (converted)
Description: (§1) The interaction of the compounds with different receptors was assessed on isolated guinea pig ileum according to the following method.
(§2) Guinea pig ileum segments measuring 2.5-3 cm were washed and immediately suspended in a bath containing 10 ml of Tyrode's solution at 37° C. aerated with a mixture of oxygen (95%) and carbon dioxide (5%). After a stabilization period of at least 30 minutes, the contractions were recorded, maintaining the preparation under constant tension of 1 g using a gauge connected to a polygraph. The agonist action was assessed by leaving the compound in contact with the isolated tissue for a period necessary for expressing the maximal contraction; the preparation was then washed with Tyrode's solution. The next dose was added to the bath only after the preparation had returned to its base line. As a reference product, arecoline was employed. The antagonist action was assessed on contractions induced by acetylchloine (1×10^-6 M), histamine (1×10^-5 M) and barium chloride (2×10^-4 M). Atropine, diphenhydramine and papaverine were employed as reference products. The contact time before adding the agonist was one minute.
(§3) For each compound, the dose-response curves are obtained with 4 to 6 different concentrations and 3 to 5 independent tests. The agonist activity is expressed by pD2 (negative logarithm of the dose which produces 50% of the maximum effect). The antagonist activity is expressed by IC50 (concentration inhibiting 50% of the maximal response).

[2] = test system: cholinomimetic effects induced by carbachol; assay: In vivo anticholinergic action: inhibition of carbachol-induced cholinomimetic effects in mice; design: species or system CD1 male mice; settings: for ED (1 C) / ED50: Mus musculus, ip; for ED (1 C): read-out: Body temperature: dose increasing by 1° C. the hypothermic effect induced by the cholinergic agent
Description: The anticholinergic activity of the compounds was determined by assessing the capacity to inhibit the cholinomimetic effects induced by carbachol. Atropine sulphate was employed as a reference product.
CD1 male mice weighing 25 to 30 g were used. They were distributed in groups of 6 animals and treated intraperitoneally with scalar doses of the products or 0.25% Methocel for the controls. 12 animals were used for each dose. 30 minutes after administration of the compounds, the mice were injected subcutaneously with 1 mg/kg of carbachol dissolved in physiological saline.
Each animal was examined 30 minutes after the injection of carbachol to assess the presence of diarrhoea, salivation and eye watering; in addition, the body temperature was measured by means of a thermocouple inserted 1.5 cm into the rectum.
For each compound, we have determined and recorded in the following table the dose capable of inhibiting the appearance of the carbachol-induced cholinometric symptoms in 50% of the animals, and of increasing by 1° C. the hypothermic effect induced by the cholinergic agent.

[3] = target: Muscarinic receptor 2; assay: Binding to muscarinic receptor 2 ([3H]quinuclidinyl benzylate); settings: 0.3 nM [3H]quinuclidinyl benzylate, rat brain, pH 7.5, 60 min, 25° C.; read-out: Affinity for M2 muscarinic receptor, IC50
Description: The preparation is performed from brains of male rats weighing 150 to 200 g (Iffa Credo).
The brains are ground (Teflon-glass) in 0.32M sucrose solution. The homogenate is centrifuged for 10 minutes at 1,000 g (0°-4° C.).
The supernatant obtained is collected and centrifuged at 30,000 g for 15 minutes (0°-4° C.).
The pellet is resuspended in 50 mM Tris buffer pH 7.5 and the new homogenate is centrifuged again at 30,000 g for 15 minutes (0°-4° C.).
After removal of the supernatant, the pellets may be used immediately or stored for up to 1 month at -30° C.
For an experiment, the pellets are first thawed, if necessary, at room temperature and resuspended using a Dounce in 50 mM Tris buffer pH 7.5. 2 ml aliquots are incubated for 60 minutes at 25° C. in the presence of 0.3 nM [^3 H]quinuclidinyl benzylate, either alone, or with the test product, or with 10^-5 M benzatropine to determine the non-specifically bound radioactivity.
At the end of the incubation period, the incubate tubes are cooled to 4° C. and filtered rapidly on Whatman GF/C filters. The filters are rinsed with 3×5 ml of 50 mM Tris buffer pH 7.5 and the measurements are then performed by liquid scintillation (Henry I. Yamamura, Solomon H. Snyder, Proc. Nat. Acad. Sc. (1974) 71, No. 5, 1725-1729).
(§4) The results are expressed as an IC50 (concentration needed to inhibit by 50% the specifically bound radioactivity).

[4] = test system: isolated guinea pig ileum, contractions induced by histamine; assay: Antagonist action on histamine-induced contractions of isolated guinea pig ileum; format: cell-based; settings: Cavia porcellus; histamine 1×10^-5 M, contact time one minute, 37° C.; read-out: Antagonist to Histam., IC50
Description: as §1
as §2, with “The antagonist action was assessed on contractions induced by acetylchloine (1×10^-6 M), histamine (1×10^-5 M) and barium chloride (2×10^-4 M). Atropine, diphenhydramine and papaverine were employed as reference products.” left out
as §3

[5] = target: T1, Muscarinic receptor 1 (Rattus norvegicus, UniProt P08482); assay: Binding to muscarinic receptor 1 ([3H]pirenzepine); settings: 0.25 nM [3H]pirenzepine, rat cortex homogenate, pH 7.4, 60 min, 25° C.; read-out: Affinity for M1 muscarinic receptor, IC50
T1 construct: cortices removed from the brains of male rats; tissue Iffa Credo (animals); host or cells: cerebral cortex of male rats weighing 150 to 200 g, homogenate
T1 sequence (P08482 1-460): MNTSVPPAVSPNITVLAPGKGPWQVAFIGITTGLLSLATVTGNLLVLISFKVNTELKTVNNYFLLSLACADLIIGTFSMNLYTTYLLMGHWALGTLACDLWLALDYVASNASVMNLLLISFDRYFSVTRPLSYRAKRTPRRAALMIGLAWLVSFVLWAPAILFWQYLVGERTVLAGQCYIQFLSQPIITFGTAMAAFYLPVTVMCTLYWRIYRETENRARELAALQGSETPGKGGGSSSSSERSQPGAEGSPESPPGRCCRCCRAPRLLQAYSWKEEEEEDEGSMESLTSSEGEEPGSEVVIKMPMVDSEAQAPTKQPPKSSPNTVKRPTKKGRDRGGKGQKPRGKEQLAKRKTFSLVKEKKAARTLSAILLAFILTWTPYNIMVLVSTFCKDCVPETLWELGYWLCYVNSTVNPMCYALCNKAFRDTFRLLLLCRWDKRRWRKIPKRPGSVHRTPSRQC
Description: Preparation of this is carried out from cortices removed from the brains of male rats weighing 150 to 200 g (Iffa Credo), ground in a Polytron in a 10 mM Na/K buffer pH 7.4. After incubation (0.5 ml aliquots of homogenate) for 60 minutes at 25° C. in the presence of 0.25 nM [^3 H]pirenzepine, either alone, or with the test product, or with an excess of 10^-5 M pirenzepine (to determine the non-specifically bound radioactivity), the incubates are cooled and filtered.
The filtration is performed on Whatman GF/C filters prewashed in a 0.05% strength solution of polyethylenimine. The filters are rinsed with 3×5 ml of 10 mM Na/K phosphate buffer pH 7.4 and the measurements are then performed by liquid scintillation.
as §4

[6] = test system: isolated guinea pig ileum, contractions induced by barium chloride; assay: Antagonist action on barium chloride-induced contractions of isolated guinea pig ileum; format: cell-based; settings: Cavia porcellus, read-out: Antagonist to BaCl2, IC50
Description: as §1, §2, §3

[7] = test system: isolated guinea pig ileum, contractions induced by acetylcholine; assay: Antagonist action on acetylcholine-induced contractions of isolated guinea pig ileum; format: cell-based; settings: Cavia porcellus, read-out: Antagonist to ACh, IC50
Description: as §1, §2, §3

[8] = 30 min before carbachol 1 mg/kg s.c., mice
[9] = 30 min before carbachol 1 mg/kg s.c., mice, read-out: Dose inhibiting carbachol-induced diarrhoea in 50% of the animals
[10] = 30 min before carbachol 1 mg/kg s.c., mice, read-out: Dose inhibiting carbachol-induced eye watering in 50% of the animals
[11] = 30 min before carbachol 1 mg/kg s.c., mice, read-out: Dose inhibiting carbachol-induced salivation in 50% of the animals
[12] = negative logarithm of the dose producing 50% of the maximum effect, 37° C.
[13] = barium chloride 2×10^-4 M, contact time one minute, 37° C.
[14] = acetylcholine 1×10^-6 M, contact time one minute, 37° C.

COC(=O)C1=CCCN(C)C1 [Arecoline, arecoline, reference compound]
EC50 [1]: 209 nM

CCN(CC)c1ccc(S(=O)(=O)N2CCCCC2=S)cc1 [Example 2, 1-[4-(diethylamino)benzenesulphonyl]-2-piperidinethione]
ED (1 C) [2, 8]: > 50 mg/kg
ED50 [2, 9]: 8 mg/kg
ED50 [2, 10]: > 50 mg/kg
ED50 [2, 11]: > 50 mg/kg
IC50 [3]: 1900 nM
IC50 [4]: > 10000 nM
IC50 [5]: 73 nM
EC50 [1, 12]: > 10000 nM
IC50 [6, 13]: > 10000 nM
IC50 [7, 14]: 340 nM

O=S(=O)(c1ccc(N2CCCCCC2)cc1)N1CCCC1=S [Example 5, 1-[4-(1-Hexahydroazepinyl)benzenesulphonyl]-2-pyrrolidinethione]
ED (1 C) [2, 8]: 12 mg/kg
ED50 [2, 9]: 0.6 mg/kg
ED50 [2, 10]: > 50 mg/kg
ED50 [2, 11]: 15 mg/kg
IC50 [3]: 120 nM
IC50 [5]: 10 nM
EC50 [1, 12]: > 10000 nM
IC50 [6, 13]: > 10000 nM
IC50 [7, 14]: 280 nM

CCN(CC)c1ccc(S(=O)(=O)N2CCCC2=S)cc1 [Example 1, 1-[4-(Diethylamino)benzenesulphonyl]-2-pyrrolidinethione]
ED (1 C) [2, 8]: > 50 mg/kg
ED50 [2, 9]: 5 mg/kg
ED50 [2, 10]: > 50 mg/kg
ED50 [2, 11]: > 50 mg/kg
IC50 [3]: 2200 nM
IC50 [4]: > 10000 nM
IC50 [5]: 43 nM
EC50 [1, 12]: > 10000 nM
IC50 [6, 13]: > 10000 nM
IC50 [7, 14]: 570 nM

O=S(=O)(c1ccc(N2CCCCCC2)cc1)N1CCCCC1=S [Example 6, 1-[4-(1-Hexahydroazepinyl)benzenesulphonyl]-2-piperidinethione]
ED (1 C) [2, 8]: > 50 mg/kg
ED50 [2, 9]: 2 mg/kg
ED50 [2, 10]: > 50 mg/kg
ED50 [2, 11]: 40 mg/kg
IC50 [3]: 230 nM
IC50 [5]: 12 nM
EC50 [1, 12]: > 10000 nM
IC50 [6, 13]: > 10000 nM
IC50 [7, 14]: 190 nM

COc1ccc(Cc2nccc3cc(OC)c(OC)cc23)cc1OC [Papaverine, papaverine, reference compound]
IC50 [6]: 45000 nM

CN1[C@@H]2CC[C@H]1C[C@@H](OC(=O)C(CO)c1ccccc1)C2 (stereo partly shown) [Atropine, reference compound]
ED50 ([2]; read-out: Dose inhibiting carbachol-induced diarrhoea in 50% of the animals): 0.04 mg/kg
ED50 ([2]; read-out: Dose inhibiting carbachol-induced eye watering in 50% of the animals): 0.05 mg/kg
ED50 ([2]; read-out: Dose inhibiting carbachol-induced salivation in 50% of the animals): 0.06 mg/kg
IC50 [7]: 9.5 nM

C[N+](C)(C)CCOC(N)=O [Carbachol, carbachol, reference compound]
cholinomimetic symptoms induced by carbachol ([2]; 1 mg/kg s.c., control mice): induced diarrhoea, salivation and eye watering in all the control mice
decrease in rectal temperature induced by carbachol ([2]; 1 mg/kg s.c., control mice): approximately 2.5 °C

O=S(=O)(c1ccc(N2CCCCC2)cc1)N1CCCCC1=S [Example 4, 1-[4-(1-Piperidyl)benzenesulphonyl]-2-piperidinethione]
ED (1 C) [2, 8]: > 50 mg/kg
ED50 [2, 9]: 7 mg/kg
ED50 [2, 10]: > 50 mg/kg
ED50 [2, 11]: > 50 mg/kg
IC50 [3]: 580 nM
IC50 [5]: 30 nM
EC50 [1, 12]: > 10000 nM
IC50 [6, 13]: > 10000 nM
IC50 [7, 14]: 3600 nM

O=S(=O)(c1ccc(N2CCCCC2)cc1)N1CCCC1=S [Example 3, 1-[4-(1-piperidyl)benzenesulphonyl]-2-pyrrolidinethione]
ED (1 C) [2, 8]: > 50 mg/kg
ED50 [2, 9]: 3 mg/kg
ED50 [2, 10]: > 50 mg/kg
ED50 [2, 11]: > 50 mg/kg
IC50 [3]: 650 nM
IC50 [5]: 25 nM
EC50 [1, 12]: > 10000 nM
IC50 [6, 13]: > 10000 nM
IC50 [7, 14]: 2600 nM
